Results as given in patent publication US9045445B2, “Glycine transporter-1 inhibitors, methods of making them, and uses thereof” (Albany Molecular Research, Inc., priority 2010, dated 2015).
Structures can show the parent of a compound that is named as a salt.

Tests used:
[1] = target: T1, glycine transporter-2 (GlyT-2) (Homo sapiens, UniProt Q9Y345); assay: [14C]glycine uptake assay in HEK-GlyT-2 transfected cells; format: cell-based; conditions: HEK-GlyT-2 cells
T1 construct: expressed in transfected cells
T1 sequence (Q9Y345 1-797): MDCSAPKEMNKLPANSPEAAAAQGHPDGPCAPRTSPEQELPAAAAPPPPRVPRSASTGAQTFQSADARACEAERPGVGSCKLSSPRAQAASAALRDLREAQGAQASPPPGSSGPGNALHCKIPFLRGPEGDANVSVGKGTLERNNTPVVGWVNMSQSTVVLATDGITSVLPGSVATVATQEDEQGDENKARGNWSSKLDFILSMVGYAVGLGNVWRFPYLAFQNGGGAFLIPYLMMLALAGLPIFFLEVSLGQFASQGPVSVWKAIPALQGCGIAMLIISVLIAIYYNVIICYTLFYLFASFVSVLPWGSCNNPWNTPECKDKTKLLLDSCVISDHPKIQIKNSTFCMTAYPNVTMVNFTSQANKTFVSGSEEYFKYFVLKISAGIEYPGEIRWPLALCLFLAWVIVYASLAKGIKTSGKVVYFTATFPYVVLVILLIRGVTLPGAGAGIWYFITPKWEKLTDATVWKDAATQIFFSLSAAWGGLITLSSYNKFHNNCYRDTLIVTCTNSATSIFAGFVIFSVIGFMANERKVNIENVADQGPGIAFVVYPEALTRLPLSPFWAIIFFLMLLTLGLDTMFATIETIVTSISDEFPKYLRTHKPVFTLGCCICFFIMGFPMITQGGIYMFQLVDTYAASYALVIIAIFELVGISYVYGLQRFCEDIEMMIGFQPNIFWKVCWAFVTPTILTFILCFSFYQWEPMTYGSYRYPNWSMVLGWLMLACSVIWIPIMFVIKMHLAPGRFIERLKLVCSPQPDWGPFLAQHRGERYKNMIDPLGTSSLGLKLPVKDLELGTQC

[2] = target: T2, glycine transporter-1 (GlyT-1) (Homo sapiens, UniProt P48067); assay: [14C]glycine uptake assay in JAR cells endogenously expressing GlyT-1 (scintillation proximity); format: cell-based; conditions: JAR cells, [14C]glycine 5 μM, 3 hour incubation; read-out: GlyT-1 IC50
T2 construct: JAR cells (ATCC#HTB-144), which endogenously express GlyT-1; host or cells: JAR human choriocarcinoma cells
T2 sequence (P48067 1-706): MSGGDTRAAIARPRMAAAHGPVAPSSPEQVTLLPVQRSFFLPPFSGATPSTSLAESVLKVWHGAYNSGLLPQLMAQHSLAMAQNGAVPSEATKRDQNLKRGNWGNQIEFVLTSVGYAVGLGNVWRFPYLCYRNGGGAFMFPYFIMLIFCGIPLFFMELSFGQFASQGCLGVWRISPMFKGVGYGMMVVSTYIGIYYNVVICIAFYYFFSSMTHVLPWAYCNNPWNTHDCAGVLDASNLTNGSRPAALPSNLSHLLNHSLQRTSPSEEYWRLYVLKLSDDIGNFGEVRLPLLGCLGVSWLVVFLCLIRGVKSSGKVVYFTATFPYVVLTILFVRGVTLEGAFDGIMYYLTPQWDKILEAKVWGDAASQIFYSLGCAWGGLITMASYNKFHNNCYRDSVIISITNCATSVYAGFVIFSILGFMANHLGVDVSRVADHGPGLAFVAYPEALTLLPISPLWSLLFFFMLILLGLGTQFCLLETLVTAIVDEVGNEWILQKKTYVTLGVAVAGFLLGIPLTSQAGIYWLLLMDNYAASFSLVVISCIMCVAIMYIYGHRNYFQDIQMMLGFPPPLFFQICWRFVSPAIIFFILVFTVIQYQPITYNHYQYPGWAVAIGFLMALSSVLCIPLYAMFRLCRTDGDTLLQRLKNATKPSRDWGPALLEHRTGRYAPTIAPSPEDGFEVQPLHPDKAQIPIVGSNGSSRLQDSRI
In short: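 IC50 comes from a four-parameter fit of nine-point, duplicate curves measuring inhibition of 5 μM [14C]glycine uptake, read by scintillation proximity after 3 h at 37 °C. Cells are human JAR, which express GlyT-1 endogenously, given 10 min compound pre-treatment in pH 7.4 buffer with 5 mM alanine and 0.75% DMSO.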

| Compound | IC50 [1] [nM] | IC50 [2] [nM] |
| --- | --- | --- |
| 2-Chloro-N-((4,4-difluoro- 1-(3-(propylsulfonyl)-3,8- diazabicyclo[3.2.1]octan- 8-yl)cyclohexyl)methyl)- 4-(trifluoromethyl) benzamide Hydrochloride [compound 261] | > 75000 | 311 |
| 4-Chloro-N-((1-(4- (propylsulfonyl)piperazin- 1-yl)cycloheptyl)methyl) benzamide Hydrochloride [compound 58] | 53000 | 265 |
| CC(NC(=O)c1ccc(C(F)(F)F)cc1Cl)C1(N2CCN(S(=O)(=O)c3cn(C)nn3)CC2)CCC(F)(F)CC1 (racemic) [compound 222, (±)-2-Chloro-N-(1-(4,4-difluoro-1-(4-(1-methyl-1H-1,2,3-triazol-4-ylsulfonyl)piperazin-1-yl)cyclohexyl)ethyl)-4-(trifluoromethyl) benzamide Hydrochloride] | > 75000 | 1 |
| CC1CN(C2(CNC(=O)c3ccc(C(F)(F)F)cc3Cl)CCC(F)(F)CC2)CCN1S(=O)(=O)c1cn(C)nn1 (racemic) [compound 227, (±)-2-Chloro-N-((4,4-difluoro-1-(3-methyl-4-(1-methyl-1H-1,2,3-triazol-4-ylsulfonyl)piperazin-1-yl)cyclohexyl)methyl)-4-(trifluoromethyl)benzamide Hydrochloride] | > 75000 | 7 |
| CCCS(=O)(=O)N1CCN(C2(CNC(=O)c3ccc(Cl)cc3Cl)CCCCC2)CC1 [compound 2, 2,4-Dichloro-N-((1-(4-(propylsulfonyl)piperazin-1-yl)cyclohexyl)methyl)benzamide Hydrochloride] | 22700 | 22 |
| CCCS(=O)(=O)N1CCN(C2(CNC(=O)c3ccccc3OC(F)(F)F)CCCCC2)CC1 [compound 4, N-((1-(4-(Propylsulfonyl)piperazin-1-yl)cyclohexyl)methyl)-2-(trifluoromethoxy) benzamide Hydrochloride] | 39100 | 22 |
| CCCS(=O)(=O)N1CCN(C2(CNC(=O)c3ccccc3)CCCCC2)CC1 [compound 24, N-((1-(4-(Propylsulfonyl)piperazin-1-yl)cyclohexyl)methyl) benzamide Hydrochloride] | > 75000 | – |
| CCCS(=O)(=O)N1CCN(C2(CNC(=O)c3ccc(Cl)cc3Cl)CCOCC2)CC1 [compound 118, 2,4-Dichloro-N-((4-(4-(propylsulfonyl)piperazin-1-yl)tetrahydro-2H-pyran-4-yl)methyl)benzamide Hydrochloride] | > 75000 | – |
| CCCS(=O)(=O)N1CCN(C2(CNC(=O)c3c(F)cc(Cl)cc3Cl)CCC(F)(F)CC2)CC1 [compound 255, 2,4-Dichloro-N-((4,4-difluoro-1-(4-(propylsulfonyl)piperazin-1-yl)cyclohexyl)methyl)-6-Fluorobenzamide Hydrochloride] | – | 14 |
| CCCS(=O)(=O)N1CCN(C2(CNC(=O)c3c(F)ccc(C(F)(F)F)c3F)CCC(F)(F)CC2)CC1 [compound 262, N-((4,4-Difluoro-1-(4-(propylsulfonyl)piperazin-1-yl)cyclohexyl)methyl)-2,6-difluoro-3-(trifluoromethyl)benzamide Hydrochloride] | – | 223 |
| CCCS(=O)(=O)N1CCN(C2(CNC(=O)c3c(Cl)ccc(C(F)(F)F)c3Cl)CCC(F)(F)CC2)CC1 [compound 265, 2,6-Dichloro-N-((4,4-difluoro-1-(4-(propylsulfonyl)piperazin-1-yl)cyclohexyl)methyl)-3-(trifluoromethyl) benzamide Hydrochloride] | – | 228 |
| CCCS(=O)(=O)N1CCN(C2(CNC(=O)c3c(F)cccc3F)CCCOCC2)CC1 (stereo not shown) [compound 268, 2,6-Difluoro-N-((4-(4-(propylsulfonyl)piperazin-1-yl)oxepan-4-yl)methyl)benzamide Hydrochloride] | – | 238 |
| O=C(NCC1(N2CCN(S(=O)(=O)c3cccnc3)CC2)CCC(F)(F)CC1)c1c(F)cccc1F [compound 269, N-((4,4-Difluoro-1-(4-(pyridin-3-ylsulfonyl)piperazin-1-yl)cyclohexyl)methyl)-2,6-difluorobenzamide Hydrochloride] | – | 817 |
| O=C(NCC1(N2CCN(S(=O)(=O)N3CCC3)CC2)CCC(F)(F)CC1)c1ccc(C(F)(F)F)cc1Cl [compound 271, N-((1-(4-(azetidin-1-ylsulfonyl)piperazin-1-yl)-4,4difluorocyclohexyl)methyl)-2-chloro-4-(trifluoromethyl)benzamide Hydrochloride] | – | 350 |

The remaining lines, values ahead:

| IC50 [1] [nM] | IC50 [2] [nM] | Compound |
| --- | --- | --- |
| – | 1100 | O=C(NCC1(N2CCN(S(=O)(=O)N3CCC(F)(F)C3)CC2)CCC(F)(F)CC1)c1ccc(C(F)(F)F)cc1Cl [compound 272, 2-Chloro-N-((1-(4-(3,3-difluoropyrrolidin-1-ylsulfonyl)piperazin-1-yl)-4,4-difluorocyclohexyl)methyl)-4-(trifluoromethyl) benzamide Hydrochloride] |
| – | 350 | CN(C)S(=O)(=O)N1CCN(C2(CNC(=O)c3ccc(C(F)(F)F)cc3Cl)CCC(F)(F)CC2)CC1 [compound 273, 2-Chloro-N-((1-(4-(N,N-dimethylsulfamoyl)piperazin-1-yl)-4,4-difluorocyclohexyl)methyl)-4-(trifluoromethyl)benzamide Hydrochloride] |
| – | 7 | Cn1cc(S(=O)(=O)N2CCN(C3(CNC(=O)c4ccc(C(F)(F)F)cc4C(F)(F)F)CCCC3)CC2)nn1 [compound 275, N-((1-(4-(1-Methyl-1H-1,2,3-triazol-4-ylsulfonyl)piperazin-1-yl)cyclopentyl)methyl)-2,4-bis(trifluoromethyl) benzamide Hydrochloride] |
| – | 7 | Cn1cc(S(=O)(=O)N2CCN(C3(CNC(=O)c4ccc(C(F)(F)F)cc4C(F)(F)F)CCOCC3)CC2)nn1 [compound 276, N-((4-(4-(1-Methyl-1H-1,2,3-triazol-4-ylsulfonyl)piperazin-1-yl)tetrahydro-2H-pyran-4-yl)methyl)-2,4-bis(trifluoromethyl) benzamide Hydrochloride] |
| – | 61 | CC(=O)CS(=O)(=O)N1CCN(C2(CNC(=O)c3ccc(C(F)(F)F)cc3Cl)CCC(F)(F)CC2)CC1 [compound 280, 2-Chloro-N-((4,4-difluoro-1-(4-(2-oxopropylsulfonyl)piper-azin-1-yl)cyclohexyl)methyl)-4-(trifluoromethyl) benzamide Hydrochloride] |
| – | 29 | CC(NC(=O)c1ccc(C(F)(F)F)cc1Cl)C1(N2CCN(S(=O)(=O)c3cn(C)nn3)CC2)CCCC1 (stereo not shown) [compound 282, 2-Chloro-N-(1-(1-(4-(1-methyl-1H-1,2,3-triazol-4-ylsulfonyl)piperazin-1-yl)cyclopentyl)ethyl)-4-(trifluoromethyl)benzamide Hydrochloride] |
| – | 2410 | Cn1ccc(S(=O)(=O)N2CCN(C3(CNC(=O)c4ccc(C(F)(F)F)cc4Cl)CCC(F)(F)CC3)CC2)n1 [compound 283, 2-Chloro-N-((4,4-difluoro-1-(4-(1-methyl-1H-pyrazol-3-ylsulfonyl)piperazin-1-yl)cyclohexyl)methyl)-4-(trifluoromethyl)benzamide Hydrochloride] |
| – | 3 | N-((4,4-Difluoro-1-(1-(1- methyl-1H-1,2,3-triazol-4- ylsulfonyl)piperidin-4- yl)cyclohexyl)methyl)-2,4- bis(trifluoromethyl) benzamide [compound 274] |
